In patent publication US4965272A, “Antimicrobial compound and compositions particularly effective against candida albicans” (priority 1988, dated 1990):
In brackets after ≈: the same amount, converted by molar mass.

Columns and labels:
Candida albicans [1] = assay: in vivo testing, disseminated infection of Candida albicans in outbred mice
From the text: In the in vivo testing of the inventive compound and compositions, outbred mice were used. A disseminated infection of Candida albicansin the test animals was achieved by intravenous injection of 0.5 to 1×10^6 CFU of the pathogen. The organism is rapidly cleared from the blood and most tissues, except the kidney which is the primary target organ for the disseminated infection in mice. It is known than an inoculum of 0.5×10^6 CFU will cause death of outbred mice within 10-14 days due to disseminated infection if untreated. The vehicle used for administering the compound of the invention was a mixture consisting of 50% USP water, 40% propylene glycol and 10% absolute ethonol.

[2] = humans, under varying conditions; cited from earlier work
Candida albicans [3] = assay: anticandidal activity, agar-well diffusion assay (zone of inhibition); type: cell-based; conditions: three test strains of Candida albicans
Experimental: In vitro evaluation of the anticandidal activity of the inventive compound and compositions was carried out using the agar-well diffusion assay as follows:
Candida albicansNIH B311 used to induce experimental disseminated candidiasis was used for the initial qualitative evaluation of anticandidal activity. The organism was grown in Sabouraud-dextrose broth (SDB) for 14 hours at 37°, at which time the cells were harvested by centrifugation (4°, 2000 rpm, 3 min). After centrifugation, the cells were washed and suspended in sterile 0.9% saline to give a final concentration of […] colony forming units (CFU) per ml (adjusted using a hemocytometer). Culture plates (15×100 mm) for the qualitative assay were prepared from 25 ml of Sabouraud-dextrose agar. […] Anticandidal activity was recorded as the width (in mm) of the zone of inhibition following incubation of the plates at 37° for 24 hours. […]

[4] = system: Saccharomyces cerevisiae 9763; assay: MIC, twofold serial broth dilution assay; type: cell-based
[5] = system: Aspergillus fumigatus 26934; assay: MIC, twofold serial broth dilution assay; type: cell-based
[6] = system: Cryptococcus neoformans 32264; assay: MIC, twofold serial broth dilution assay; type: cell-based
Candida albicans 10231 = assay: MIC, twofold serial broth dilution assay; type: cell-based; conditions: ATCC10231; Candida albicans ATCC 10231; 24 and 48 hours at 37°
Experimental: (§1) Candida albicansNIH B311 used to induce experimental disseminated candidiasis was used for the initial qualitative evaluation of anticandidal activity. The organism was grown in Sabouraud-dextrose broth (SDB) for 14 hours at 37°, at which time the cells were harvested by centrifugation (4°, 2000 rpm, 3 min). After centrifugation, the cells were washed and suspended in sterile 0.9% saline to give a final concentration of […] colony forming units (CFU) per ml (adjusted using a hemocytometer). Culture plates (15×100 mm) for the qualitative assay were prepared from 25 ml of Sabouraud-dextrose agar. Using sterile cotton swabs, the plates were streaked with the suspension ([…] of Candida albicansB311. Cylindrical plugs were removed from the agar plates by means of a sterile cork borer to produce wells with a diameter of approximately 11 mm. To the well was added 100 μl of solution or suspension of an extract, fraction, or pure compound. Crude extracts and fractions were tested at a concentration of 20 mg/ml, whereas pure compounds were tested at 1 mg/ml. When solvents other than H2 O, EtOH, MeOH, DMSO, DMF, or Me2 CO were required to dissolve extracts or compounds, solvent blanks were included. Anticandidal activity was recorded as the width (in mm) of the zone of inhibition following incubation of the plates at 37° for 24 hours. The antifungal agents amphotericin-B and ketoconazole were included as standards in each assay.
(§2) The method used to determine the minimum inhibitory concentration (MIC) of the inventive compound was a twofold serial broth dilution assay in yeast nitrogen broth. In addition to Candida albicansB311, the MIC values for eupolauridine were also determined for two additional strains of Candida albicans: ATCC 10231 and a clinical isolate, designated WH. The inventive compound was initially tested using a concentration of 100 μg/ml in the first tube. The compound was added to sterile Sabouraud-dextrose broth as a solution in DMSO. The inoculum for the MIC determination was prepared as described for qualitative evaluation. […]

Candida albicans WH = assay: MIC, twofold serial broth dilution assay; type: cell-based; conditions: Candida albicans clinical isolate WH; 24 and 48 hours at 37°
Experimental: as §1, §2

Candida albicans B311 = assay: MIC, twofold serial broth dilution assay; type: cell-based; conditions: 24 and 48 hours at 37°
Experimental: as §1, §2

[7] = system: Trichophyton mentagrophytes 9972; assay: MIC, twofold serial broth dilution assay; type: cell-based
Aspergillus flavus 9170 = assay: MIC, twofold serial broth dilution assay; type: cell-based

C[C@@H]1[C@H](O)[C@@H](C)/C=C/C=C/C=C/C=C/C=C/C=C/C=C/[C@H](O[C@@H]2O[C@H](C)[C@@H](O)[C@H](N)[C@@H]2O)C[C@@H]2O[C@](O)(C[C@@H](O)C[C@@H](O)[C@H](O)CC[C@@H](O)C[C@@H](O)CC(=O)O[C@H]1C)C[C@H](O)[C@H]2C(=O)O [Amphotericin-B, amphotericin-B, reference compound]
Number dead/Total (Candida albicans [1]; 2.5 mg/kg, day 1): 0/10 | Number dead/Total (Candida albicans [1]; 2.5 mg/kg, day 2): 0/10 | Number dead/Total (Candida albicans [1]; 2.5 mg/kg, day 3): 0/10 | Number dead/Total (Candida albicans [1]; 2.5 mg/kg, day 4): 0/10 | Number dead/Total (Candida albicans [1]; 2.5 mg/kg, day 5): 0/10 | Number dead/Total (Candida albicans [1]; 2.5 mg/kg, day 6): 1/10 | Number dead/Total (Candida albicans [1]; 2.5 mg/kg, day 7): 2/10 | Number dead/Total (Candida albicans [1]; 2.5 mg/kg, day 8): 2/10 | Number dead/Total (Candida albicans [1]; 2.5 mg/kg, day 9): 4/10 | Number dead/Total (Candida albicans [1]; 2.5 mg/kg, day 10): 4/10 | side effects [2]: fever, anorexia, nausea and vomiting, diarrhea, muscle and joint pain, phlebitis and thiophlebitis, anemia, abnormal renal function, anuria, cardiovascular distress, hypertension and hypotension

c1ccc2c(c1)-c1nccc3ccnc-2c13 [Eupolauridine, eupolauridine]
zone of inhibition (Candida albicans [3]): remarkable zone of inhibition | MIC [4]: 3.12 µg/mL (≈ 15.3 µM) | MIC [5]: 6.25 µg/mL (≈ 30.6 µM) | MIC [6]: 1.56 µg/mL (≈ 7.64 µM) | MIC (Candida albicans 10231): 1.56 µg/mL (≈ 7.64 µM) | MIC (Candida albicans WH): 1.56 µg/mL (≈ 7.64 µM) | MIC (Candida albicans B311): 1.56 µg/mL (≈ 7.64 µM) | MIC [7]: 1.56 µg/mL (≈ 7.64 µM) | MIC (Aspergillus flavus 9170): 6.25 µg/mL (≈ 30.6 µM) | Number dead/Total (Candida albicans [1]; 2 mg/kg, day 1): 0/10 | Number dead/Total (Candida albicans [1]; 2 mg/kg, day 2): 0/10 | Number dead/Total (Candida albicans [1]; 2 mg/kg, day 3): 0/10 | Number dead/Total (Candida albicans [1]; 2 mg/kg, day 4): 0/10 | Number dead/Total (Candida albicans [1]; 2 mg/kg, day 5): 0/10 | Number dead/Total (Candida albicans [1]; 2 mg/kg, day 6): 1/10 | Number dead/Total (Candida albicans [1]; 2 mg/kg, day 7): 3/10 | Number dead/Total (Candida albicans [1]; 2 mg/kg, day 8): 4/10 | Number dead/Total (Candida albicans [1]; 2 mg/kg, day 9): 4/10 | Number dead/Total (Candida albicans [1]; 2 mg/kg, day 10): 7/10 | Number dead/Total (Candida albicans [1]; 7 mg/kg, day 1): 0/10 | Number dead/Total (Candida albicans [1]; 7 mg/kg, day 2): 0/10 | Number dead/Total (Candida albicans [1]; 7 mg/kg, day 3): 2/10 | Number dead/Total (Candida albicans [1]; 7 mg/kg, day 4): 2/10 | Number dead/Total (Candida albicans [1]; 7 mg/kg, day 5): 2/10 | Number dead/Total (Candida albicans [1]; 7 mg/kg, day 6): 3/10 | Number dead/Total (Candida albicans [1]; 7 mg/kg, day 7): 3/10 | Number dead/Total (Candida albicans [1]; 7 mg/kg, day 8): 3/10 | Number dead/Total (Candida albicans [1]; 7 mg/kg, day 9): 4/10 | Number dead/Total (Candida albicans [1]; 7 mg/kg, day 10): 7/10 | animals survived (Candida albicans [1]; 20 mg/kg body weight, 10 days): 50% | survival compared with amphotericin-B (Candida albicans [1]; 20 mg/kg body weight, 10 days): not statistically significantly different from the results with amphotericin-B | Number dead/Total (Candida albicans [1]; 20 mg/kg, day 1): 0/10 | Number dead/Total (Candida albicans [1]; 20 mg/kg, day 2): 0/10 | Number dead/Total (Candida albicans [1]; 20 mg/kg, day 3): 0/10 | Number dead/Total (Candida albicans [1]; 20 mg/kg, day 4): 0/10 | Number dead/Total (Candida albicans [1]; 20 mg/kg, day 5): 0/10 | Number dead/Total (Candida albicans [1]; 20 mg/kg, day 6): 0/10 | Number dead/Total (Candida albicans [1]; 20 mg/kg, day 7): 1/10 | Number dead/Total (Candida albicans [1]; 20 mg/kg, day 8): 3/10 | Number dead/Total (Candida albicans [1]; 20 mg/kg, day 9): 3/10 | Number dead/Total (Candida albicans [1]; 20 mg/kg, day 10): 5/10
